Source: patent US20100298141A1, “SUBSTITUTED PYRIDINE N-OXIDE HERBICIDES” (E. I. DU PONT DE NEMOURS AND COMPANY, priority 2007, published 2010)

How the values were obtained:
barnyardgrass [1] = assay: Test A pre-/postemergence greenhouse test; type: in vivo, Echinochloa crus-galli; settings: for Barnyardgrass plant response rating: 0 to 100 scale
Method in brief: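 Untreated controls served as the reference for visual injury ratings taken about ten days after spraying. The non-phytotoxic solvent/surfactant formulation was applied preemergence to seeded loam and sand and postemergence to plants two to ten cm high.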

cocklebur = assay: Test C pre-/postemergence test; type: in vivo, Xanthium strumarium
Method in brief: (§1)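 Test chemicals were formulated with surfactant in a non-phytotoxic solvent and sprayed both on freshly planted seeds (preemergence) and on 1- to 4-leaf plants of 2–18 cm (postemergence). Flooded-paddy pots received compound directly into 3 cm of standing water, maintained for the test.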

kochia = assay: Test C pre-/postemergence test; type: in vivo, Kochia scoparia
Method in brief: as §1

velvetleaf = assay: Test C pre-/postemergence test; type: in vivo, Abutilon theophrasti
Method in brief: as §1

green foxtail = assay: Test F preemergence test; type: in vivo, Setaria viridis; settings: scale 0 to 100
Method in brief: (§2)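 Preemergence application to planted seeds, or postemergence to sugarcane plants; compound in non-phytotoxic solvent mix plus surfactant. Greenhouse, 14-21 days. Visual rating vs. controls.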

mustard = assay: Test F preemergence test; type: in vivo, Brassica nigra; settings: scale 0 to 100
Method in brief: as §2

dallisgrass = assay: Test F preemergence test; type: in vivo, Paspalum dilatatum; settings: scale 0 to 100
Method in brief: as §2

barnyardgrass [2] = assay: Test F preemergence test; type: in vivo, Echinochloa crus-galli
Method in brief: as §2

broadleaf signalgrass = assay: Test F preemergence test; type: in vivo, Brachiaria platyphylla; settings: scale 0 to 100
Method in brief: as §2

Virginia dayflower = assay: Test F preemergence test; type: in vivo, Commelina virginica; settings: scale 0 to 100
Method in brief: as §2

annual bluegrass = assay: Test F preemergence test; type: in vivo, Poa annua; settings: scale 0 to 100
Method in brief: as §2

itchgrass = assay: Test F preemergence test; type: in vivo, Rottboellia cochinchinensis; settings: scale 0 to 100
Method in brief: as §2

field bindweed = assay: Test F preemergence test; type: in vivo, Convolvulus arvensis; settings: scale 0 to 100
Method in brief: as §2

common mallow = assay: Test F preemergence test; type: in vivo, Malva sylvestris; settings: scale 0 to 100
Method in brief: as §2

[3] = 62 g ai/ha, Preemergence, scale 0 to 100
[4] = 125 g ai/ha, preemergence, scale 0 (no effect) to 100 (complete control)
[5] = Preemergence, 31 g ai/ha, scale 0 to 100 (0 no effect, 100 complete control)
[6] = preemergence, 250 g ai/ha, scale 0 (no effect) to 100 (complete control)

Cc1cc[n+]([O-])c(S(=O)(=O)C(Cl)c2c(C(F)(F)F)nn(C)c2OCC(F)(F)F)c1 (racemic) [Compound 37]
35: Plant response rating, Signalgrass (broadleaf signalgrass; Preemergence, 31 g ai/ha) | Itchgrass plant response rating (itchgrass; 62 g ai/ha, Preemergence)
60: Bluegrass plant response rating (annual bluegrass; 62 g ai/ha, Preemergence)
65: Plant response rating, Signalgrass (broadleaf signalgrass; Preemergence, 62 g ai/ha)
80: Bluegrass plant response rating (annual bluegrass; 125 g ai/ha, preemergence) | Itchgrass plant response rating (itchgrass; 125 g ai/ha, preemergence)
75: Dallisgrass plant response rating (dallisgrass; 62 g ai/ha, Preemergence)
0: Cocklebur plant response rating (cocklebur; [3]) | Cocklebur plant response rating (cocklebur; [4]) | Plant response rating, Cocklebur (cocklebur; [5]) | Cocklebur plant response rating (cocklebur; [6]) | Plant response rating, Kochia (kochia; [5]) | Velvetleaf plant response rating (velvetleaf; [3]) | Plant response rating, Velvetleaf (velvetleaf; [5]) | Plant response rating, Foxtail, Green (green foxtail; 16 g ai/ha, preemergence) | Plant response rating, Black Mustard (mustard; 16 g ai/ha, preemergence) | Plant response rating, Dallisgrass (dallisgrass; 16 g ai/ha, preemergence) | Plant response rating, Dayflower (Virginia dayflower; 16 g ai/ha, preemergence) | Plant response rating, Bluegrass (annual bluegrass; 16 g ai/ha, preemergence) | Plant response rating, Itchgrass (itchgrass; 16 g ai/ha, preemergence) | Plant response rating, Itchgrass (itchgrass; Preemergence, 31 g ai/ha) | Plant response rating, Field Bindweed (field bindweed; 16 g ai/ha, preemergence) | Field Bindweed plant response rating (field bindweed; 62 g ai/ha, Preemergence) | Field Bindweed plant response rating (field bindweed; 125 g ai/ha, preemergence) | Plant response rating, Field Bindweed (field bindweed; Preemergence, 31 g ai/ha) | Plant response rating, Mallow (common mallow; 16 g ai/ha, preemergence) | Mallow plant response rating (common mallow; 62 g ai/ha, Preemergence) | Plant response rating, Mallow (common mallow; Preemergence, 31 g ai/ha)
95: Signalgrass plant response rating (broadleaf signalgrass; 125 g ai/ha, preemergence)
30: Barnyardgrass plant response rating (barnyardgrass [1]; Postemergence, 125 g ai/ha, 0 is no effect, 100 is complete control)
40: Kochia plant response rating (kochia; [3]) | Plant response rating, Barnyardgrass (barnyardgrass [2]; Preemergence, 31 g ai/ha, scale 0 to 100)
70: Barnyardgrass plant response rating (barnyardgrass [1]; Postemergence, 500 g ai/ha, 0 is no effect, 100 is complete control) | Velvetleaf plant response rating (velvetleaf; [6])
15: Foxtail, Green plant response rating (green foxtail; 62 g ai/ha, Preemergence) | Plant response rating, Black Mustard (mustard; Preemergence, 31 g ai/ha)
25: Plant response rating, Dallisgrass (dallisgrass; Preemergence, 31 g ai/ha)
90: Barnyardgrass plant response rating (barnyardgrass [1]; Preemergence, 125 g ai/ha, 0 no effect, 100 complete control) | Foxtail, Green plant response rating (green foxtail; 125 g ai/ha, preemergence) | Plant response rating, Dayflower (Virginia dayflower; Preemergence, 31 g ai/ha) | Mallow plant response rating (common mallow; 125 g ai/ha, preemergence)
50: Black Mustard plant response rating (mustard; 62 g ai/ha, Preemergence)
20: Plant response rating, Barnyardgrass (barnyardgrass [2]; 16 g ai/ha, preemergence, scale 0 to 100 (0 no effect, 100 complete control)) | Plant response rating, Signalgrass (broadleaf signalgrass; 16 g ai/ha, preemergence)
100: Plant response rating, Barnyardgrass (barnyardgrass [1]; Preemergence, 500 g ai/ha, 0 to 100 scale where 0 is no effect and 100 is complete control) | Kochia plant response rating (kochia; [4]) | Kochia plant response rating (kochia; [6]) | Black Mustard plant response rating (mustard; 125 g ai/ha, preemergence) | Dallisgrass plant response rating (dallisgrass; 125 g ai/ha, preemergence) | Barnyardgrass plant response rating (barnyardgrass [2]; [3]) | Barnyardgrass plant response rating (barnyardgrass [2]; 125 g ai/ha, preemergence, scale 0 to 100) | Dayflower plant response rating (Virginia dayflower; 62 g ai/ha, Preemergence) | Dayflower plant response rating (Virginia dayflower; 125 g ai/ha, preemergence)
10: Velvetleaf plant response rating (velvetleaf; [4]) | Plant response rating, Foxtail, Green (green foxtail; Preemergence, 31 g ai/ha) | Plant response rating, Bluegrass (annual bluegrass; Preemergence, 31 g ai/ha)
